In patent US20220257557A1, “PHARMACEUTICAL COMPOSITION FOR PREVENTING OR TREATING NEUROLOGICAL DISEASES” (GLACEUM INC., priority 2019, published 2022):

How the values were obtained:
[1] = molecular target: T1, rePON1 (PON1, paraoxonase 1) (Homo sapiens, UniProt P27169); test: Prevention of inhibition of PON1 activity by oxidized linolenic acid (TBBL substrate); format: biochemical
T1 construct: purchased Thermo Corp. RP-75678
Outline: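 Recombinant PON1 preincubated 30 min at room temperature with compound (30 μM) in 50 mM Tris-HCl/1 mM CaCl2, then exposed to oxidized linolenic acid for 2 h. Activity read with TBBL and DTNB at 420 nm, 37 °C, every 2 min for 1 h, expressed relative to uninhibited PON1.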

RAW264.7 cells = test: IL-1β, IL-6 and TNF-α mRNA expression after LPS (RT-PCR); format: cell-based; details: 3 h pretreatment (Table 3 amounts), LPS 1 μg/ml 6 h
Outline: (§1)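 Cells pretreated with test compounds (cytotoxicity checked by MTT), then stimulated with 1 μg/ml LPS for 6 h. IL-1β, IL-6 and TNF-α mRNA levels measured by RT-PCR.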

BV2 cells = test: as above; format: cell-based; details: 3 h pretreatment (Table 3 amounts), LPS 1 μg/ml 6 h
Outline: as §1

T1 sequence (P27169 whole entry): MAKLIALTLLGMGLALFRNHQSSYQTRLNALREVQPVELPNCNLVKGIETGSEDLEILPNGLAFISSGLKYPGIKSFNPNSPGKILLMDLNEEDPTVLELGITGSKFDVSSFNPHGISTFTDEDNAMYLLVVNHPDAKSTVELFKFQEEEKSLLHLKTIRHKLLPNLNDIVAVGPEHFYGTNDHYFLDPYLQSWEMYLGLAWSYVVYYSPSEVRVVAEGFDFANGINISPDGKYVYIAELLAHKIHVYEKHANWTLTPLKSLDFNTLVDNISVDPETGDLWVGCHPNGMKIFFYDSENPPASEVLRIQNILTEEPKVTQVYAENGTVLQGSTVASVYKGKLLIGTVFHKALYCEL

CCOc1ccc(C2COc3c(ccc4c3CCC(C)(C)O4)C2)c(O)c1 (stereo not drawn) [Formula III-1, 2-(8,8-dimethyl-2,3,4,8,9,10-hexahydropyrano[2,3-f]chromen-3-yl)-5-ethoxyphenol]
activity at 30 µM ([1]; 30 μM compound with rePON1 30 min, then oxidized linolenic acid 2 h, TBBL substrate, normal control 100, negative control 73.64): 89%
extent to which inhibition of rePON1 activity was prevented, compared with glabridin ([1]; compound 30 μM vs glabridin 30 μM, result in words): greater
inhibition of rePON1 activity by oxidized linolenic acid ([1]; compound 30 μM, result in words): prevented
mRNA expression level of IL-1β (RAW264.7 cells): concentration-dependently decreased
mRNA expression level of IL-6 (RAW264.7 cells): concentration-dependently decreased
mRNA expression level of TNF-α (RAW264.7 cells): concentration-dependently decreased
mRNA expression level of IL-1β (BV2 cells): concentration-dependently decreased
mRNA expression level of IL-6 (BV2 cells): concentration-dependently decreased
mRNA expression level of TNF-α (BV2 cells): concentration-dependently decreased
